Test: transport of hyaluronic acid through pig skin (Franz cell)
Method: Skin samples (stored at −80° C.) were thawed at 4° C. for approximately 15 hr followed by 1 hr at room temperature prior to use. A thawed pig dermatomed skin sample was mounted horizontally on a Franz cell, dermis side down. […] The receptor phase consisted of PBS pH 7.4 with continuous stirring.
A test formulation, formulated as a suspension was applied to the skin and uniformly dispersed over the skin surface at a surface density of at least 1.0 g/cm^2 to insure pseudo-infinite dose conditions. The formulations consisted of a peptide surfactant of the invention together with hyaluronic acid. The formulations used were as described in the following table: […]
The dose chamber was sealed with an occlusive film to prevent loss of any volatile component of the test formulation. […] Each aliquot was replaced with an equal volume of PBS.
The samples were analyzed for the presence of hyaluronic acid by the Carbazole method as is known in the art.

Row | Compound | HA traversed the skin (pH 7.4) | HA traversed the skin (control, surfactant omitted, 5 mg/ml HA, period of 6 hours, Franz cell, receptor PBS pH 7.4, curve 1 in FIG. 1)
1 | CCCCCCCCCCCC(=O)N(C)CC(=O)[O-].[Na+] [NLS, N Lauroyl Sarcosine Sodium salt] | about 65 ?g/cm^2 | –
2 | hyaluronic acid [HA] | – | about 40 ?g/cm^2

— patent US20120058956A1, “PEPTIDES DERIVED FROM FICOLIN AS SURFACTANTS” (METAMOREFIX LTD., priority 2009, published 2012)
